This passage reports IC50 results from BindingDB's records for patent US11028085 (Nimbus Saturn, 2021).

Structures are written as SMILES.

The target in this assay is Mitogen-activated protein kinase kinase kinase kinase 1 (Homo sapiens, UniProt Q92918). The experiment in a line: Biochemical Enzyme Assay. Here is the method:
HPK1 biochemical enzyme assay: HPK1 enzyme inhibition was measured using a microfluidic mobility shift assay. […] Test compounds were titrated in ten point curves (top final assay concentration […]), and preincubated with enzyme/substrate mix for 30 min prior to initiation of the reaction by addition of ATP (1 mM final concentration) and substrate ([…] final concentration; Carna Biosciences) diluted in assay buffer supplemented by MgCl2 (final assay concentration of 5 mM). Following 60 min incubation at RT, the reaction was terminated by addition of 60 µl/well termination buffer (Carna Biosciences) and signal determination using a Caliper EZ Reader (Perkin Elmer, UK).

Sequence of Mitogen-activated protein kinase kinase kinase kinase 1 (Q92918 whole entry): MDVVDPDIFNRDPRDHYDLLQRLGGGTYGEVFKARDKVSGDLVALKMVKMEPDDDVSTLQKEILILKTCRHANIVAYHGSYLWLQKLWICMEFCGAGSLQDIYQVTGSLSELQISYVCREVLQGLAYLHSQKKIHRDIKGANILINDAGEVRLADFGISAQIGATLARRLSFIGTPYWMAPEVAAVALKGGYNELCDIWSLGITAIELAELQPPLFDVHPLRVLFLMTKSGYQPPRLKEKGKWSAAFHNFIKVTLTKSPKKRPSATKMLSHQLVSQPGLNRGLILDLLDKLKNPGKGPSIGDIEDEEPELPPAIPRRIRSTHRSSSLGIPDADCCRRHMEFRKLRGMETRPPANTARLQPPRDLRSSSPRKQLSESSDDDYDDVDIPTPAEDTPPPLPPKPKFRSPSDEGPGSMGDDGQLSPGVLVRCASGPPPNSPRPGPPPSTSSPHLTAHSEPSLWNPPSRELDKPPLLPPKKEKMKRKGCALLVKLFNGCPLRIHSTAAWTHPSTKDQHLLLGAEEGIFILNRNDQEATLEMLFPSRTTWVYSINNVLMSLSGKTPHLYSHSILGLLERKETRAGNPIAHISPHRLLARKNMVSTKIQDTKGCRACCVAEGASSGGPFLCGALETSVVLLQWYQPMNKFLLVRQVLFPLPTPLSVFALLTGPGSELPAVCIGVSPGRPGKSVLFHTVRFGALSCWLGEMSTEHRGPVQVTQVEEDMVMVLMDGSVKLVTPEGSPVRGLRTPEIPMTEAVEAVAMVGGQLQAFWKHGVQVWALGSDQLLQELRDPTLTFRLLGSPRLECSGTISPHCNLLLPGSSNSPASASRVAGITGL

`CN1CC(c2ccn3c(-c4ccc(Nc5ccc(N6CCC(O)CC6)cc5)c5c4CNC5=O)cnc3c2)C1` [US11028085, Compound I-411] came in with an IC50 below 100 nM.
With `CCOc1c(C#N)cnn2c(-c3ccc(Nc4ccc(N5CCC(O)CC5)cn4)c4c3CNC4=O)cnc12` [US11028085, Compound I-185], the IC50 result was “in the range around 550 nM”.
